Assay results taken from publication PMC6836411, “Identification and characterization of the Cucurbitacins, a novel class of small-molecule inhibitors of Tropomyosin receptor kinase a” (BMC Complementary and Alternative Medicine, 2019).

Legend:
Format in all cases: biochemical
CAMK1 = CAMK1 (Homo sapiens, UniProt Q14012); experiment: radiometric kinase panel, single dose […], duplicate; conditions: read-out: % remaining activity at 500 nM
[1] = biological target: T1, Tropomyosin receptor kinase A (TrkA) (Homo sapiens, UniProt P04629); experiment: radiometric [γ-33P]ATP kinase assay, poly(Glu,Tyr) substrate, dose-response
T1 construct: gene NTRK1
T1 sequence (P04629 441-796 limits assumed): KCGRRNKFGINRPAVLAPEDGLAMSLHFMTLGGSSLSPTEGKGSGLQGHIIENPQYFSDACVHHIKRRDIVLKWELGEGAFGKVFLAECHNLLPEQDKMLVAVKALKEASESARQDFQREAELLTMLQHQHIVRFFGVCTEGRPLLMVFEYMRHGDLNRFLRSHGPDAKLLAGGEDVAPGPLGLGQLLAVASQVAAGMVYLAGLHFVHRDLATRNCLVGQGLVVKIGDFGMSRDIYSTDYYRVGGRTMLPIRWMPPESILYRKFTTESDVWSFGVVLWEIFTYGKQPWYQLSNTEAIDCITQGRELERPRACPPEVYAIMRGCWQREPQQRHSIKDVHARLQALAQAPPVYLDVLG

Aurora B = biological target: T2, Aurora B (Homo sapiens, UniProt Q96GD4); experiment: radiometric kinase panel, single dose […], duplicate; conditions: read-out: % remaining activity at 500 nM
T2 construct: gene AURKB
T2 sequence (Q96GD4 whole entry): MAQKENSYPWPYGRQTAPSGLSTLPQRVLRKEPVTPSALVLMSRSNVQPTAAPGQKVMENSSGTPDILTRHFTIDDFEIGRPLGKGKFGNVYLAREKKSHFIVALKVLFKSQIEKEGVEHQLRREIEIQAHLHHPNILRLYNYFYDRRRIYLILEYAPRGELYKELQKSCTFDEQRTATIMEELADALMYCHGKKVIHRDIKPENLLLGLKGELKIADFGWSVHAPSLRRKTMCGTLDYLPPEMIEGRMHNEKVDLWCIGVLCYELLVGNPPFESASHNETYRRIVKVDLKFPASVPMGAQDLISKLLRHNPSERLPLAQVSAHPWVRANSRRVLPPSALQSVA

Chain of CAMK1 (Q14012 whole entry): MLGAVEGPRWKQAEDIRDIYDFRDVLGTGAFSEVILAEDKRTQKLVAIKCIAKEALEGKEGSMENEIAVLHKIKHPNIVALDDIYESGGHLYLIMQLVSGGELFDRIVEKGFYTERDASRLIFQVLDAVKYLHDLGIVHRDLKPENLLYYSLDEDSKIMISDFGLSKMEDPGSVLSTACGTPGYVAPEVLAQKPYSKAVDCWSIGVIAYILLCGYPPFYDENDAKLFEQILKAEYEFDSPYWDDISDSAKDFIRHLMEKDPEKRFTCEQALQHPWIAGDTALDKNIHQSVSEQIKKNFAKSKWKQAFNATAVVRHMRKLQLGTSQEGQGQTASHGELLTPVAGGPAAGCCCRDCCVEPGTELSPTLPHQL

SMILES | remaining activity at 0.5 µM (CAMK1) | IC50 [1] | remaining activity at 0.5 µM (Aurora B)
CC(=O)OC(C)(C)/C=C/C(=O)[C@](C)(O)[C@H]1[C@H](O)C[C@@]2(C)[C@@H]3CC=C4[C@@H](C[C@H](O)C(=O)C4(C)C)[C@]3(C)C(=O)C[C@]12C [CuB, Cucurbitacin B] | 12.9 ± 3.7% | 178 nM | 23.2 ± 2.8%
CC(C)(O)/C=C/C(=O)[C@](C)(O)[C@H]1[C@H](O)C[C@@]2(C)[C@@H]3CC=C4[C@@H](C=C(O)C(=O)C4(C)C)[C@]3(C)C(=O)C[C@]12C [CuI, Cucurbitacin I] | – | 959 nM | –
CC(=O)OC(C)(C)/C=C/C(=O)[C@](C)(O)[C@H]1[C@H](O)C[C@@]2(C)[C@@H]3CC=C4[C@@H](C=C(O)C(=O)C4(C)C)[C@]3(C)C(=O)C[C@]12C [CuE, Cucurbitacin E] | – | 549 nM | –
